Results: US20160015770A1, “COMPOSITIONS FOR TREATMENT OF RETINAL DETACHMENT” (THE REGENTS OF THE UNIVERSITY OF MICHIGAN, priority 2013, published 2016)
“Also recorded” adds a separate entry of the source.

Experiments:
detached retina = assay: Experimental retinal detachment, western blot of autophagy markers (Atg5, Atg5-12, LC3-II) in retina; format: in vivo; details: rat, 0.2 μg subretinal at time of detachment, 7 days, vs detached retinas alone
Experimental: All experiments were performed in accordance with the ARVO Statement for the Use of Animals in Ophthalmic and Vision Research and the guidelines established by the University Committee on Use and Care of Animals of the University of Michigan. Detachments were created in adult male Brown-Norway rats (300-400 g; Charles River Laboratories, Wilmington, Mass.) as described previously. Briefly, rodents were anesthetized with a 50:50 mix of ketamine/xylazine, and pupils were dilated with topical phenylephrine (2.5%) and tropicamide (1%). A 20-gauge microvitreoretinal blade was used to create a sclerotomy 2 mm posterior to the limbus, carefully avoiding lens damage. A subretinal injector (Glaser, 32-gauge tip; BD Ophthalmic Systems, Franklin Lakes, N.J.) was introduced through the sclerotomy into the vitreous cavity and then through a peripheral retinotomy into the subretinal space. Sodium hyaluronate (10 mg/mL, Healon OVD; Abbott Medical Optics, Uppsala, Sweden) was slowly injected to detach the neurosensory retina from the underlying RPE. In all experiments, approximately one third to one half of the neurosensory retina was detached. Detachments were created in the left eye. The right eye served as the control, with all the steps of the procedure performed except for introduction of the subretinal injector and injection of the sodium hyaluronate. […]
Retinas from experimental eyes with detachment (detached portion of retina only) and control eyes without detachment were dissected from the RPE-choroid, homogenized, and lysed in buffer containing 10 mM HEPES (pH 7.6), 0.5% IgEPal, 42 mM KCl, 1 mM phenylmethylsulfonyl fluoride, 1 mM EDTA, 1 mM EGTA, 1 mM dithiothreitol, 5 mM MgCl2, and one tablet of protease inhibitors per 10 mL buffer (Complete Mini; Roche Diagnostics GmbH, Madison, Wis.). […] The protein concentration of the supernatant was then determined (DC Protein Assay kit; Bio-Rad Laboratories, Hercules, Calif.). The protein samples were separated on SDS-polyacrylamide gels (Tris-HCl Ready Gels; Bio-Rad Laboratories). […]

caspase 8 = assay: Caspase 8 activity luminescent assay in Fas-activated 661W cells; format: cell-based, mouse
Experimental: Caspase 8 activity was measured by a commercially available luminescent cleavage assay kit (Promega, Madison, Wis.). The 661W cells were seeded in 96-well plates at 2,000 cells/well for 24 hours before treatment. Cells were treated with 500 ng/mL Fas-agonistic Jo2 monoclonal antibody and various concentrations of calpeptin or equal volume of DMSO. Caspase 8 activity was measured at 48 hours by incubating the cells with the proluminescent substrate in 96-well plates according to the manufacturer's instructions. Controls included untreated cells and wells with no cells. Luminescence was measured in a plate reader luminometer (Turner Biosystems, Sunnyvale, Calif.).

CCCC[C@@H](C=O)NC(=O)[C@H](CC(C)C)NC(=O)OCc1ccccc1 [calpeptin]
Atg5 level in retina (detached retina): increase in Atg5; also recorded: significantly more Atg5
caspase 8 activity (caspase 8; 661W cells not treated with Fas activating antibody, calpeptin alone): no effect
caspase 8 activity (caspase 8; 661W cells, Fas activating antibody 48 hours, 1 μM): little effect
caspase 8 activity (caspase 8; 661W cells, Fas activating antibody 48 hours, 10 uM): returned caspase 8 activity to baseline levels; also recorded: significantly reduced its activity back to baseline
caspase 8 activity (caspase 8; 661W cells, Fas activating antibody 48 hours, 25 uM): returned caspase 8 activity to baseline levels; also recorded: significantly reduced its activity back to baseline
